Assays:
D2 (h) = target: T1, D2 (h) (Homo sapiens, UniProt P14416); test: Competition assay to measure binding affinity at D2L receptor; settings: test ligand 10 μM; [3H]methylspiperone 0.3 nM
T1 construct: host or cells: HEK-293 cells

5-HT1D (r) = target: T2, 5-HT1D (r) (Rattus norvegicus, UniProt P28565); test: Competition assay to measure binding affinity at 5-HT1D receptor; settings: test ligand 10 μM; [3H]serotonin 1 nM
T2 construct: host or cells: CHO cells

5-HT2C (h) = target: T3, 5-HT2C (h) (Homo sapiens, UniProt P28335); test: Competition assay to measure binding affinity at 5-HT2C receptor; settings: test ligand 10 μM; [125I](±)DOI 0.1 nM
T3 construct: host or cells: HEK-293 cells
T3 sequence (P28335 33-458): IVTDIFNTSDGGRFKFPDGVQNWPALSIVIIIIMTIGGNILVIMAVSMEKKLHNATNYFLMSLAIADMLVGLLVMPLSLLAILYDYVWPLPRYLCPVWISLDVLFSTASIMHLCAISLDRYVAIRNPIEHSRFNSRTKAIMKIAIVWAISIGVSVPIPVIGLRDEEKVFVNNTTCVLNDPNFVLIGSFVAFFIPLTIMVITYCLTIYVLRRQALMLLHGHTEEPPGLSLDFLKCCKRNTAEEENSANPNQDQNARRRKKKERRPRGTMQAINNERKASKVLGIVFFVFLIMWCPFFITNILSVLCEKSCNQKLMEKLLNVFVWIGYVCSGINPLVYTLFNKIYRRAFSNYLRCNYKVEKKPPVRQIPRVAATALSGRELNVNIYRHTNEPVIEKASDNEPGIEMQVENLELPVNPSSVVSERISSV

[1] = target: T4, human serotonin transporter (SERT) (Homo sapiens, UniProt P31645); test: biochemical; format: binding
T4 construct: purchased PerkinElmer RBHSTM400UA
T4 sequence (P31645 whole entry): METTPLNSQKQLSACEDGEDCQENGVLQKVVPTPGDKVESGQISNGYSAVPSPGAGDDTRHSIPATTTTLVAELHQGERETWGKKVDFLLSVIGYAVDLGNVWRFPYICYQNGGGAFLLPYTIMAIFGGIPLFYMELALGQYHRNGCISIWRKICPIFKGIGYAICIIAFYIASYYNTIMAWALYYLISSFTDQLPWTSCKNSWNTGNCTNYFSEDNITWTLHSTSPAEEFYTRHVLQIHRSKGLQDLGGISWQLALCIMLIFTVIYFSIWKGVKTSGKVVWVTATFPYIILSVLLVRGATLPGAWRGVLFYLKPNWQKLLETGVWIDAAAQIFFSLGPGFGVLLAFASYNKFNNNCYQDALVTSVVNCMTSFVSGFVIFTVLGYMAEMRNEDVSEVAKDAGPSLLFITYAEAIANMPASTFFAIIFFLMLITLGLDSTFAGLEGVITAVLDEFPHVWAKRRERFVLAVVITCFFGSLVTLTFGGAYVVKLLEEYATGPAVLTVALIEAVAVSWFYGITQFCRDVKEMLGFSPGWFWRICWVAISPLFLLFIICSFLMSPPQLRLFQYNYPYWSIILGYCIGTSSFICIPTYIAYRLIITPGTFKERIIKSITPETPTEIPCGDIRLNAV

NET (h) = target: T5, NET (h) (Homo sapiens, UniProt P23975); test: Competition assay to measure binding affinity at norepinephrine transporter (NET); settings: test ligand 10 μM; [3H]nisoxetine 1 nM
T5 construct: host or cells: CHO cells
T5 sequence (P23975 whole entry): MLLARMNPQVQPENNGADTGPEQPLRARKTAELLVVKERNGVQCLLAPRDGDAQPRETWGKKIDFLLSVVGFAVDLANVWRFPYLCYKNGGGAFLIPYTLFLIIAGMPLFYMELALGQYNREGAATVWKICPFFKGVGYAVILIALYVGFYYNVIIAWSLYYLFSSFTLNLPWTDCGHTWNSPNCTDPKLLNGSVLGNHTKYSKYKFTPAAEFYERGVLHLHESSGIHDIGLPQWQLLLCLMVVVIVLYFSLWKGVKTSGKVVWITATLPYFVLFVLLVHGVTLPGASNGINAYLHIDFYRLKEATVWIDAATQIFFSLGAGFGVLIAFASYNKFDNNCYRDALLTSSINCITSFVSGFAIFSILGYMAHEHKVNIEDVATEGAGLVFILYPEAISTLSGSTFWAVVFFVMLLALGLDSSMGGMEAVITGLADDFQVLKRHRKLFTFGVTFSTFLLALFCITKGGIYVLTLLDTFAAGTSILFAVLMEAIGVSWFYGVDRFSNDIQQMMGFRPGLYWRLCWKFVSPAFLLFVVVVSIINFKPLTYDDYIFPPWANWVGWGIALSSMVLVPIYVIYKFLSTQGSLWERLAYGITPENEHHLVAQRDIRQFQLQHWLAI

MT1 (ML1A) (h) = target: T6, MT1 (ML1A) (h) (Homo sapiens, UniProt P48039); test: Competition assay to measure binding affinity at MT1 receptor; settings: test ligand 10 μM; [125I]2-iodomelatonin 0.01 nM
T6 construct: host or cells: CHO cells
T6 sequence (P48039 whole entry): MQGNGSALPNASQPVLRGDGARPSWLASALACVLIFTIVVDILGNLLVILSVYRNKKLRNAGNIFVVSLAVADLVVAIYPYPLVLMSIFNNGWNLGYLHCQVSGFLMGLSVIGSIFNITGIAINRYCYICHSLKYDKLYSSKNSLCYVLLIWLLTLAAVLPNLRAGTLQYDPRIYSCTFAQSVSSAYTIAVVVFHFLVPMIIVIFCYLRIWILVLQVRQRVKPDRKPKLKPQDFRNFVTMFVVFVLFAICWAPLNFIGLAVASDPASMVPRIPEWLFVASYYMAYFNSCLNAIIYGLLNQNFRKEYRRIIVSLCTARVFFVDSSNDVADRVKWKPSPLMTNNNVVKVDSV

5-HT1A receptor = target: T7, 5-HT1A receptor (Homo sapiens, UniProt P08908); test: 5-HT1A receptor radioligand competition assay (SPA); format: binding; settings: for Ki: competition with 0.5 nM 8-hydroxy-DPAT [3H], test compound 3 nM to 1 mM, read-out: 5-HT1A, Ki
T7 construct: purchased Perkin Elmer 6110501400UA
T7 sequence (P08908 1-422): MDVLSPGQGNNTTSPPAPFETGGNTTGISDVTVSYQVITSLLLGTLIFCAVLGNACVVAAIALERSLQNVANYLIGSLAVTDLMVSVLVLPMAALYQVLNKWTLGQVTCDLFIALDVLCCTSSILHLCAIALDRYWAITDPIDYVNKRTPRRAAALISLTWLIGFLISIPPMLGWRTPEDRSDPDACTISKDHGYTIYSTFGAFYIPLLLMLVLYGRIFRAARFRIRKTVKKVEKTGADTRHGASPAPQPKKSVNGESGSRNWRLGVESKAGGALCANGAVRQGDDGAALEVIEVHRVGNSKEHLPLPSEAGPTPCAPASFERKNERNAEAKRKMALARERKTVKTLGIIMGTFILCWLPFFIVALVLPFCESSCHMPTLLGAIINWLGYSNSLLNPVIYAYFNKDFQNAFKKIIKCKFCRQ

alpha2A (h) = target: T8, alpha2A (h) (Homo sapiens, UniProt P08913); test: Competition assay to measure binding affinity at alpha2A receptor; settings: test ligand 10 μM, [3H]RX 821002 1 nM; for inhibition at 10 µM: read-out: α-2A, percent of control-specific binding
T8 construct: host or cells: CHO cells
T8 sequence (P08913 1-465): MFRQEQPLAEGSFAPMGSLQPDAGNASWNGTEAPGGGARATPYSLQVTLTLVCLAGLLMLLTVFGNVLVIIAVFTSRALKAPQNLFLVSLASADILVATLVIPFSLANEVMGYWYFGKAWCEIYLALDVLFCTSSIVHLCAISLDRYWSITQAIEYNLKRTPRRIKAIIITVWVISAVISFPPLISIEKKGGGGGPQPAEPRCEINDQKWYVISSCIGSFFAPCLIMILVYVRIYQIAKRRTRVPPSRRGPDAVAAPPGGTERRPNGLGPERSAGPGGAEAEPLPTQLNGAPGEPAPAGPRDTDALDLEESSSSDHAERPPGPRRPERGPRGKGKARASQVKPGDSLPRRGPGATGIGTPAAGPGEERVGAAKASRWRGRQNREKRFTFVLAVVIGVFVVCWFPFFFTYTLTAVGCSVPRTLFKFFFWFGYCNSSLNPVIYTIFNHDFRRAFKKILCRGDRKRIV

5-HT2B (h) = target: T9, 5-HT2B (h) (Homo sapiens, UniProt P41595); test: Competition assay to measure binding affinity at 5-HT2B receptor; settings: test ligand 10 μM; [3H]mesulergine 2 nM
T9 construct: host or cells: CHO cells
T9 sequence (P41595 whole entry): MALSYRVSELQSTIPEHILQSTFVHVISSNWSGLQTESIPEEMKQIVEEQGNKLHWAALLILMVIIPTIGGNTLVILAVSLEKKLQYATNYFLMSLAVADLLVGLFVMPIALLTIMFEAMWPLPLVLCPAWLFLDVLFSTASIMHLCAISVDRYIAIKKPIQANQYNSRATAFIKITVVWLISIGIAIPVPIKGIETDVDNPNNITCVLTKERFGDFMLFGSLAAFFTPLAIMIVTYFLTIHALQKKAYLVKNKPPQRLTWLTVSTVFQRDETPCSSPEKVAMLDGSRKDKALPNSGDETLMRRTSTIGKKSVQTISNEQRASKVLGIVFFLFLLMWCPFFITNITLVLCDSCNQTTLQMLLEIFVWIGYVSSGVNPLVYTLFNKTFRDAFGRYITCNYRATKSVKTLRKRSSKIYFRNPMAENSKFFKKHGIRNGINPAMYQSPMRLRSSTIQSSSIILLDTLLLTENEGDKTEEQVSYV

5-HT1B (h) = target: T10, 5-HT1B (h) (Homo sapiens, UniProt P28222); test: Competition assay to measure binding affinity at 5-HT1B receptor; settings: test ligand 10 μM; [3H]GR125743 1 nM
T10 construct: host or cells: Chem-1 (RBL) cells
T10 sequence (P28222 whole entry): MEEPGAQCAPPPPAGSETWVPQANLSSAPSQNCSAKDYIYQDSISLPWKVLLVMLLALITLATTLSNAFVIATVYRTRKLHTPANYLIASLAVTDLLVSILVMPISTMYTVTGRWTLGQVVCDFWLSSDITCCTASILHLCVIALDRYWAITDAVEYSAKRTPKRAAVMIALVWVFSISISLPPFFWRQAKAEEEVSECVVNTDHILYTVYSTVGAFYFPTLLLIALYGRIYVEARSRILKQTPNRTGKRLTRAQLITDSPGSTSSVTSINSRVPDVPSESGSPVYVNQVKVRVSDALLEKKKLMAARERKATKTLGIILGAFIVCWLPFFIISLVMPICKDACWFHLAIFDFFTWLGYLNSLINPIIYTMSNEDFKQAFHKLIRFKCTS

5-HT7 (h) = target: T11, 5-HT7 (h) (Homo sapiens, UniProt P34969); test: Competition assay to measure binding affinity at 5-HT7 receptor; settings: test ligand 10 μM; [3H]LSD 4 nM
T11 construct: host or cells: HEK-293 cells
T11 sequence (P34969 whole entry): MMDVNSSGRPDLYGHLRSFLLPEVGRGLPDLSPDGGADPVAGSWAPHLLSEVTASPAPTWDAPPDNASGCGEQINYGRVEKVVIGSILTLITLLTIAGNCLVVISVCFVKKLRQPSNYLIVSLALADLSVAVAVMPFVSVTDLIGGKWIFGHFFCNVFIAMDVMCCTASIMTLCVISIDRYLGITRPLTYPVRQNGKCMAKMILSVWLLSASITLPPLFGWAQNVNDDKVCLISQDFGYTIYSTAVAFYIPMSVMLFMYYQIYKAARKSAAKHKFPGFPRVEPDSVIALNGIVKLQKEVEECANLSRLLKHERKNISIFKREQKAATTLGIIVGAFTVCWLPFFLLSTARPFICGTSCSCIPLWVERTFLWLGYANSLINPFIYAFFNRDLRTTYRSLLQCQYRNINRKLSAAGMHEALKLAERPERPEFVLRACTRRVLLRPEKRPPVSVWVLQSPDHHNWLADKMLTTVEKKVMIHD

D3 (h) = target: T12, D3 (h) (Homo sapiens, UniProt P35462); test: Competition assay to measure binding affinity at D3 receptor; settings: test ligand 10 μM; [3H]methylspiperone […]
T12 construct: host or cells: CHO cells
T12 sequence (P35462 whole entry): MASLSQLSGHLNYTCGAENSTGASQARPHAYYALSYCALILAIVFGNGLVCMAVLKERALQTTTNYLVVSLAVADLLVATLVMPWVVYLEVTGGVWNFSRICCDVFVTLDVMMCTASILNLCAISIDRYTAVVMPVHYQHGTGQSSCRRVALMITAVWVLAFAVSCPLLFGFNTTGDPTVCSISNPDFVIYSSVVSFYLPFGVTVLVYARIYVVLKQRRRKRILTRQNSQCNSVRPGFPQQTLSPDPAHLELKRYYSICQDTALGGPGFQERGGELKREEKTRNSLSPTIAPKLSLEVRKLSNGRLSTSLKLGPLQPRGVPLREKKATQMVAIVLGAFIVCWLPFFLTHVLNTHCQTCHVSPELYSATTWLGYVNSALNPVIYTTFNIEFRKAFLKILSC

DAT (h) = target: T13, DAT (h) (Homo sapiens, UniProt Q01959); test: Competition assay to measure binding affinity at dopamine transporter (DAT); settings: test ligand 10 μM; [3H]BTCP 4 nM
T13 construct: host or cells: CHO cells
T13 sequence (Q01959 whole entry): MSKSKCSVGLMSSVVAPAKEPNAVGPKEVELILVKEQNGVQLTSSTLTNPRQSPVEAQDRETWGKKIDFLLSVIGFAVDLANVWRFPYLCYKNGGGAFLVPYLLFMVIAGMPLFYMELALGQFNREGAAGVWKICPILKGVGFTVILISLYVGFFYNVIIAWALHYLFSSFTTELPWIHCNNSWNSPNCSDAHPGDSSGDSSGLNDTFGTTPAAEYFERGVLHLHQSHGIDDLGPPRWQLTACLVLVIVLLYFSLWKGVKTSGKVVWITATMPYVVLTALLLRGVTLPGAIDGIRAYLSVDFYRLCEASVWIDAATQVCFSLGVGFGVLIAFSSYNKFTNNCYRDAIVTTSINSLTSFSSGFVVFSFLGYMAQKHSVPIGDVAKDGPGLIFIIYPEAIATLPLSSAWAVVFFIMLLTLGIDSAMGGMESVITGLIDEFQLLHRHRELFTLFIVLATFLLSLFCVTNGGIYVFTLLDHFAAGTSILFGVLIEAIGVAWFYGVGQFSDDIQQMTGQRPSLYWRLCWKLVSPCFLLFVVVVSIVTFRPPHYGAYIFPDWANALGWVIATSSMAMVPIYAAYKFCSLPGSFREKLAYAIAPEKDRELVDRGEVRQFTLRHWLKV

T2 sequence (P28565 whole entry): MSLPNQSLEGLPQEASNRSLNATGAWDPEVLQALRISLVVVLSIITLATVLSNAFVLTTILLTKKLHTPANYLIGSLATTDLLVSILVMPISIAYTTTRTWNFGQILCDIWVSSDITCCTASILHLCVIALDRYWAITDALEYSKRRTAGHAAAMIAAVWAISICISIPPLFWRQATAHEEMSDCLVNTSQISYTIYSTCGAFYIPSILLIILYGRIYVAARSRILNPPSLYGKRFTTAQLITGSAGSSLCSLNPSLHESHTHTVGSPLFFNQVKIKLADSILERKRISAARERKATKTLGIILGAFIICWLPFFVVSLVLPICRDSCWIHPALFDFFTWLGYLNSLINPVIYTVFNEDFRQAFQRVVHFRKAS
T1 sequence (P14416 whole entry): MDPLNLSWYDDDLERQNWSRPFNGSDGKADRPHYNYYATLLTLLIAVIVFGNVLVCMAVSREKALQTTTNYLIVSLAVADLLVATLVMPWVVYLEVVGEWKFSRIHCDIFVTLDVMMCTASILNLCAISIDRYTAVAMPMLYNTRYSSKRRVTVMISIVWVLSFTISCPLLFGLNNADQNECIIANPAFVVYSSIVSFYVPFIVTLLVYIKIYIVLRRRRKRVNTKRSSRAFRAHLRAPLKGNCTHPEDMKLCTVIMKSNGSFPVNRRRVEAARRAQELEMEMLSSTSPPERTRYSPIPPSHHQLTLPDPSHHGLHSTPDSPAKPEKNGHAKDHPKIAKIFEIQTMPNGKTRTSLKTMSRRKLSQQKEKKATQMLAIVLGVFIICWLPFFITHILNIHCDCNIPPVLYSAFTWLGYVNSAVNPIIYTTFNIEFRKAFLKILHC

SMILES | D2, percent of control-specific binding (D2 (h)) [%] | HT1D, percent of control-specific binding (5-HT1D (r)) [%] | HT2C, percent of control-specific binding (5-HT2C (h)) [%] | Ki [1] [µM] | NET, percent of control-specific binding (NET (h)) [%] | MT1, percent of control-specific binding (MT1 (ML1A) (h)) [%] | Ki (5-HT1A receptor) [µM] | inhibition at 10 µM (alpha2A (h)) [%] | HT2B, percent of control-specific binding (5-HT2B (h)) [%] | HT1B, percent of control-specific binding (5-HT1B (h)) [%] | HT7, percent of control-specific binding (5-HT7 (h)) [%] | D3, percent of control-specific binding (D3 (h)) [%] | DAT, percent of control-specific binding (DAT (h)) [%] | α-2A, percent of control-specific binding (alpha2A (h)) [%] | SERT binding, binding curve in words [1] | 5-HT1A receptor binding, binding curve in words (5-HT1A receptor; FIGS. 35C-35L)
CON(C)C(C)Cc1ccc2c(c1)OCO2 (stereo not shown) [A(XVIII)] | 0 | 0 | 3 | 98 | 1 | 6 | > 1000 | 0 | 9 | 6 | 6 | 5 | 5 | – | – | –
COc1cc2c(cc1CC(=O)NCCO)OCO2 [A(XXII)] | 0 | 5 | 15 | 52.3 | 1 | 18 | > 1000 | 0 | 14 | 0 | 20 | 3 | 0 | – | – | –
COc1ccc2cccc(CCNC(C)=O)c2c1 [Agomelatine, reference compound] | −4 | 10 | 92 | – | 1 | 99 | – | 2 | 93 | −9 | – | 6 | 1 | – | – | –
CC(NC(C)(C)C)C(=O)c1cccc(Cl)c1 (stereo not shown) [Bupropion, reference compound] | −5 | −1 | 1 | – | – | 83 | – | 2 | −2 | 9 | – | 3 | 92 | – | – | –
COc1cc(CC(C)N)c(OC)cc1Br (stereo not shown) [DOB, reference compound] | 9 | 84 | – | – | 6 | −3 | – | – | 97 | 20 | 65 | 25 | 3 | 66 | – | –
CNCC[C@H](Oc1cccc2ccccc12)c1cccs1 [Duloxetine, reference compound] | 24 | 63 | 92 | – | – | 23 | – | – | 95 | 52 | – | 66 | – | – | – | –
CN(C)CCCN1c2ccccc2CCc2ccccc21 [Imipramine, reference compound] | 82 | 39 | 98 | – | 99 | 29 | – | 57 | 94 | 36 | – | 92 | 23 | – | – | –
COc1ccc2[nH]cc(CCNC(C)=O)c2c1 [Melatonin, reference compound] | −20 | 13 | 19 | – | −2 | 98 | – | -7 | 52 | 0 | – | 2 | 4 | – | – | –
O=c1n(CCCN2CCN(c3cccc(Cl)c3)CC2)nc2ccccn12 [Trazodone, reference compound] | 61 | – | 93 | – | −1 | 14 | – | 91 | 97 | 61 | – | 89 | 24 | – | – | –
N#Cc1ccc2[nH]cc(CCCCN3CCN(c4ccc5oc(C(N)=O)cc5c4)CC3)c2c1 [Vilazodone, reference compound] | 97 | 97 | 92 | – | 99 | 84 | – | 65 | 96 | 67 | – | 99 | 98 | – | – | –
N[C@@H](Cc1c[nH]c2ccccc12)C(=O)O [tryptophan, reference compound] | −19 | 3 | 25 | > 1000 | 1 | −2 | > 1000 | -4 | 0 | −22 | – | −23 | 1 | – | no binding to SERT | no binding
Cc1ccc(Sc2ccccc2N2CCNCC2)c(C)c1 [vortioxetine, reference compound] | 51 | 100 | 99 | 0.00203 | 99 | 26 | – | 62 | 97 | 101 | – | 88 | 90 | – | very tight interaction | –
